In article PMC12736150 (Pharmaceuticals, 2025):
Where two headings read alike, the source gives them in different places.

Tests used:
[1] = system: MPXV strain MOH-NRC-0002/2022, clade II lineage A.2.1; assay: in vitro; settings: African green monkey, SI (selectivity safety index = CC50/IC50)
in vitro = settings: African green monkey
[2] = system: MPXV strain MOH-NRC-0002/2022, clade II lineage A.2.1; assay: microbe, parasite or virus in culture; settings: Monkeypox virus
[3] = system: MPXV strain MOH-NRC-0002/2022, clade II lineage A.2.1
[4] = system: Zr-599 and Liberia strains of MPXV; settings: cited from earlier work
[5] = system: MPXV lineage responsible for the 2022 outbreak; settings: in vivo; cited from earlier work
[6] = system: clade I or clade II MPXV infection; settings: human, in vivo; cited from earlier work

| Compound | selectivity ratio [1] | CC50 (in vitro) [µM] | IC50 ([2]; Vero C1008, 72 h) [µM] | also measured |
| --- | --- | --- | --- | --- |
| Nc1nc(NC2CC2)c2ncn([C@H]3C=C[C@@H](CO)C3)c2n1 [Abacavir] | 5.46 | 328 | 60.1 | – |
| Nc1nc2c(ncn2COCCO)c(=O)[nH]1 [Acyclovir] | – | 332 | – | – |
| NC12CC3CC(CC(C3)C1)C2 [Amantadine] | 15.2 | 570 | 37.5 | SI (selectivity safety index = CC50/IC50) ([3]; African green monkey): 15.22 |
| CCN(CC)CCCC(C)Nc1ccnc2cc(Cl)ccc12 (stereo not shown) [Chloroquine] | 2.47 | 253 | 102 | – |
| COC(=O)N[C@H](C(=O)N1CCC[C@H]1c1nc(-c2ccc(-c3ccc(-c4c[nH]c([C@@H]5CCCN5C(=O)[C@@H](NC(=O)OC)C(C)C)n4)cc3)cc2)c[nH]1)C(C)C [Daclatasvir] | 1.99 | 386 | 194 | – |
| C[C@@H]1CCO[C@H]2Cn3cc(C(=O)NCc4ccc(F)cc4F)c(=O)c(O)c3C(=O)N12 [Dolutegravir] | 7.82 | 160 | 20.5 | antiviral activity against MPXV (in words) [3]: moderate antiviral activity |
| C=C1[C@H](CO)[C@@H](O)C[C@@H]1n1cnc2c(=O)[nH]c(N)nc21 [Entecavir] | 12 | 336 | 28.1 | antiviral activity against MPXV (in words) [3]: moderate anti-Mpox activity |
| NC(=O)c1nc(F)c[nH]c1=O [Favipiravir] | 3.41 | 283 | 82.8 | – |
| CCN(CCO)CCCC(C)Nc1ccnc2cc(Cl)ccc12 (stereo not shown) [Hydroxychloroquine] | 7.41 | 296 | 39.9 | antiviral activity against MPXV (in words) [3]: moderate antiviral activity |
| Nc1ccn([C@@H]2CS[C@H](CO)O2)c(=O)n1 [Lamivudine] | – | 410 | – | – |
| CC(C)C(=O)OC[C@H]1O[C@@H](n2ccc(NO)nc2=O)[C@H](O)[C@@H]1O [Molnupiravir] | – | 111 | 5.7 | IC50 [4]: ~5.2 µM; IC50 [3]: 5.73 µM; antiviral activity against MPXV (in words) [3]: moderate anti-Mpox activity |
| Cc1ccnc2c1NC(=O)c1cccnc1N2C1CC1 [Nevirapine] | 2.61 | 277 | 106 | – |
| CCOC(=O)C1=C[C@@H](OC(CC)CC)[C@H](NC(C)=O)[C@@H](N)C1 [Oseltamivir] | 4.6 | 369 | 58.5 | CC50 (Vero-E6 cells; African green monkey): 269 µM |
| Nc1nc2c(ncn2CCC(CO)CO)c(=O)[nH]1 [Penciclovir] | 3.95 | 280 | 70.8 | IC50 ([2]; Vero C1008): 70.9 µM |
| CCC(CC)COC(=O)[C@H](C)N[P@](=O)(OC[C@H]1O[C@@](C#N)(c2ccc3c(N)ncnn23)[C@H](O)[C@@H]1O)Oc1ccccc1 [Remdesivir] | – | 503 | 10 | – |
| NC(=O)c1ncn([C@@H]2O[C@H](CO)[C@@H](O)[C@H]2O)n1 [Ribavirin] | 1.83 | 262 | 144 | – |
| CC(C)OC(=O)[C@H](C)N[P@](=O)(OC[C@H]1O[C@@H](n2ccc(=O)[nH]c2=O)[C@](C)(F)[C@@H]1O)Oc1ccccc1 [Sofosbuvir] | 0.61 | 286 | 470 | – |
| O=C(NN1C(=O)[C@@H]2[C@@H]3C=C[C@@H]([C@H]4C[C@@H]34)[C@@H]2C1=O)c1ccc(C(F)(F)F)cc1 [Tecovirimat] | – | – | – | survival rates [5]: enhanced the survival rates; lesion resolution time [6]: did not reduce lesion resolution time; safety in randomized clinical trials [6]: safe |
| CC(C)[C@H](N)C(=O)OCCOCn1cnc2c(=O)[nH]c(N)nc21 [Valaciclovir] | 5.42 | 404 | 74.4 | – |
| CC(C)[C@H](N)C(=O)OCC(CO)OCn1cnc2c(=O)nc(N)[nH]c21 (stereo partly shown) [Valganciclovir] | 5.36 | 494 | 92 | – |
| COC[C@H]1C[C@@H](c2ncc(-c3ccc4c(c3)COc3cc5c(ccc6nc([C@@H]7CC[C@H](C)N7C(=O)[C@@H](NC(=O)OC)C(C)C)[nH]c65)cc3-4)[nH]2)N(C(=O)[C@H](NC(=O)OC)c2ccccc2)C1 [Velpatasvir] | 0.95 | 316 | 332 | – |
| CC(=O)N[C@H]1[C@H]([C@H](O)[C@H](O)CO)OC(C(=O)O)=C[C@@H]1N=C(N)N [Zanamivir] | 1.9 | 359 | 189 | – |
| Cc1cn([C@H]2C[C@H](N=[N+]=[N-])[C@@H](CO)O2)c(=O)[nH]c1=O [Zidovudine] | 2.29 | 282 | 123 | antiviral activity against MPXV (in words) [3]: limited activity |
| Tenofovir disoproxil | – | – | – | CC50 (Vero-E6 cells): 302 µM; IC50 [3]: 67.2 µM; SI (selectivity safety index = CC50/IC50) [3]: 4.50 |
